Source: patent US20230128402A1 (The Trustees of Princeton University, priority 2020, published 2023)

Tests used:
[1] = biological target: T1, mALDH1a3 (Mus musculus, UniProt Q9JHW9); experiment: Aldh1a3 enzyme inhibition assay, recombinant mALDH1a3; type: biochemical; conditions: resorufin fluorescence, 20° C.
T1 construct: made in house; host or cells: E. coli BL21-DE3, pET-Aldh1a3
T1 sequence (Q9JHW9 1-512): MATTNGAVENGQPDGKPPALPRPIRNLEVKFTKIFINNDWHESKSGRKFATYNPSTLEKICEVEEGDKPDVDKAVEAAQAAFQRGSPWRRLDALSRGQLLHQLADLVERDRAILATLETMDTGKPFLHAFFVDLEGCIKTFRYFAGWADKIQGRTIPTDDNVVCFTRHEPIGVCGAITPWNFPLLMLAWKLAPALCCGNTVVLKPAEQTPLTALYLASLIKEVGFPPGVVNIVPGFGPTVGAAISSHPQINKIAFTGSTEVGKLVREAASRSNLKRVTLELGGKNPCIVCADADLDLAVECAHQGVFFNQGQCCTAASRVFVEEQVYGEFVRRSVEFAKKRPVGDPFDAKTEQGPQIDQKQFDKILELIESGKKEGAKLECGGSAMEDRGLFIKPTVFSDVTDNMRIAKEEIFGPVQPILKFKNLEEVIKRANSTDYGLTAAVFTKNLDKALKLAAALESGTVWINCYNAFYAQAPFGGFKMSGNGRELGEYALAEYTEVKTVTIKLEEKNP
Text: (§1) Recombinant enzyme and inhibitor added immediately before assay. Reaction rate measured by resorufin fluorescence.

[2] = biological target: T2, ALDH1a3 (Homo sapiens, UniProt P47895); experiment: Aldh1a3 enzyme inhibition assay, recombinant hALDH1a3; type: biochemical; parameters: made in house; host or cells: E. coli BL21-DE3, pET-Aldh1a3; conditions: resorufin fluorescence, 20° C.
T2 sequence (P47895 1-512): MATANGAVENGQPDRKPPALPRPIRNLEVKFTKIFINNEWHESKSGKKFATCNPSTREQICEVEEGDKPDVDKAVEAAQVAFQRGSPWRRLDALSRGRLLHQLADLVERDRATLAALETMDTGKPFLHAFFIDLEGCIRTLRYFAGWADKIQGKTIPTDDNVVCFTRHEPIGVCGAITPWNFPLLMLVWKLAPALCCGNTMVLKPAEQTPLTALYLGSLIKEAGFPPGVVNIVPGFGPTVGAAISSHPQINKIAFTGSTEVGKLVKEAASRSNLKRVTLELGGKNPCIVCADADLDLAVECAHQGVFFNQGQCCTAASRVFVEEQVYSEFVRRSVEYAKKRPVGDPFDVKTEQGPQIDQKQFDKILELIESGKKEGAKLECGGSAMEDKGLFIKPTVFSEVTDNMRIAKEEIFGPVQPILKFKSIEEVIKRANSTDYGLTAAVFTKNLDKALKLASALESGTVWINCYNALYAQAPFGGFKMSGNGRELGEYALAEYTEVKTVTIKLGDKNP
Text: as §1

| SMILES | IC50 [1] | IC50 [2] |
| --- | --- | --- |
| Cc1ccc(Nc2ccc3c(c2)CC(C)(C)C(=O)N3)nc1C [Compound 96, 6-[(5,6-dimethyl-2-pyridyl)amino]-3,3-dimethyl-1,4-dihydroquinolin-2-one] | > 5000 nM | > 5000 nM |
| CCc1cnccc1C(=O)Nc1cc2c(cc1F)NC(=O)C(C)(C)C2 [Compound 38] | 1000 to 5000 nM | 250 to 1000 nM |
| CCc1cnccc1C(=O)Nc1ccc2c(c1)CCC(=O)N2C [Compound 23, 3-ethyl-N-(1-methyl-2-oxo-3,4-dihydroquinolin-6-yl)pyridine-4-carboxamide] | 1000 to 5000 nM | > 5000 nM |
| COC(=O)c1ccc2ncc(Nc3ccc4c(c3)CC(C)(C)C(=O)N4)nc2c1 [Compound 120, methyl 3-[(3,3-dimethyl-2-oxo-1,4-dihydroquinolin-6-yl)amino]quinoxaline-6-carboxylate] | > 5000 nM | > 5000 nM |
| Cc1cccc2ccc(Nc3ccc4c(c3)CC(C)(C)C(=O)N4)nc12 [Compound 111] | > 5000 nM | > 5000 nM |
| CCc1c[nH]c(=O)cc1C(=O)Nc1ccc2c(c1)CCC(=O)N2 [Compound 51, 5-ethyl-2-oxo-N-(2-oxo-3,4-dihydro-1H-quinolin-6-yl)-1H-pyridine-4-carboxamide] | > 5000 nM | > 5000 nM |
| Cc1cc(C(=O)Nc2ccc3c(c2)CC2(CC2)C(=O)N3)c(Cl)cn1 [Compound 68] | > 5000 nM | 1000 to 5000 nM |
| N#Cc1cccc2ncc(Nc3ccc4c(c3)CCC(=O)N4)cc12 [Compound 100, 3-[(2-oxo-3,4-dihydro-1H-quinolin-6-yl)amino]quinoline-5-carbonitrile] | > 5000 nM | > 5000 nM |
| CC1(C)Cc2cc(Nc3ccc4c(c3)NC(=O)CC4)ccc2NC1=O [Compound 114, 3,3-dimethyl-6-[(2-oxo-3,4-dihydro-1H-quinolin-7-yl)amino]-1,4-dihydroquinolin-2-one] | > 5000 nM | > 5000 nM |
| CC1(C)CC(=O)Nc2ccc(Nc3nccc4ccccc34)cc21 [Compound 34, 6-(1-isoquinolylamino)-4,4-dimethyl-1,3-dihydroquinolin-2-one] | > 5000 nM | > 5000 nM |
| Cc1cccc2ncc(Nc3ccc4c(c3)CCC(=O)N4)cc12 [Compound 101, 6-[(5-methyl-3-quinolyl)amino]-3,4-dihydro-1H-quinolin-2-one] | 1000 to 5000 nM | 1000 to 5000 nM |
| CC1(C)Cc2cc(Nc3ccc4cnccc4c3)ccc2NC1=O [Compound 103, 6-(6-isoquinolylamino)-3,3-dimethyl-1,4-dihydroquinolin-2-one] | > 5000 nM | > 5000 nM |
| CCc1cnccc1C(=O)Nc1ccc2c(c1)C(C)(C)C(=O)N2 [Compound 137] | > 5000 nM | > 5000 nM |
| CN(C)Cc1cnccc1C(=O)Nc1ccc2c(c1)CCC(=O)N2 [Compound 58, 3-[(dimethylamino)methyl]-N-(2-oxo-3,4-dihydro-1H-quinolin-6-yl)pyridine-4-carboxamide] | > 5000 nM | > 5000 nM |
| CCc1cc(=O)n(C)cc1C(=O)Nc1ccc2c(c1)CCC(=O)N2 [Compound 76, 4-ethyl-1-methyl-6-oxo-N-(2-oxo-3,4-dihydro-1H-quinolin-6-yl)pyridine-3-carboxamide] | > 5000 nM | > 5000 nM |
| COCc1cnccc1C(=O)Nc1ccc2c(c1)CCC(=O)N2 [Compound 57, 3-(methoxymethyl)-N-(2-oxo-3,4-dihydro-1H-quinolin-6-yl)pyridine 4 carboxamide] | > 5000 nM | > 5000 nM |
| CC1(C)Cc2cc(NN3CCC(c4ccccc4)C3=O)ccc2NC1=O (stereo not drawn) [Compound 106] | > 5000 nM | > 5000 nM |
| CCc1cnccc1C(=O)Nc1ccc2c(c1)C(C)CC(=O)N2 (stereo not drawn) [Compound 64, 3-ethyl-N-(4-methyl-2-oxo-3,4-dihydro-1H-quinolin-6-yl)pyridine-4-carboxamide] | 250 to 1000 nM | 100 to 250 nM |
| O=C1CCc2cc(Nc3ccc4ccccc4n3)ccc2N1 [Compound 35, 6-(2-quinolylamino)-3,4-dihydro-1H-quinolin-2-one] | < 100 nM | 250 to 1000 nM |
| Cc1cc(C(=O)Nc2cc3c(cc2F)NC(=O)C(C)(C)C3)c(CC(C)C)cn1 [Compound 37, N-(7-fluoro-3,3-dimethyl-2-oxo-1,4-dihydroquinolin-6-yl)-5-isobutyl-2-methyl-pyridine-4-carboxamide] | > 5000 nM | 1000 to 5000 nM |

| SMILES | IC50 [1] | IC50 [2] |
| --- | --- | --- |
| CC1(C)Cc2cc(Nc3ncc4ccccc4n3)ccc2NC1=O [Compound 93, 3,3-dimethyl-6-(quinazolin-2-ylamino)-1,4-dihydroquinolin-2-one] | 250 to 1000 nM | 250 to 1000 nM |
| CC1(C)Cc2cc(Nc3ncc4ccccc4n3)c(F)cc2NC1=O [Compound 108, 7-fluoro-3,3-dimethyl-6-(quinazolin-2-ylamino)-1,4-dihydroquinolin-2-one] | 250 to 1000 nM | 1000 to 5000 nM |
| CCc1cnc(C)cc1C(=O)Nc1cc2c(cc1F)NC(=O)CC2 [Compound 8] | 100 to 250 nM | < 100 nM |
| Cc1cnccc1C(=O)Nc1ccc2c(c1)CCC(=O)N2 [Compound 21] | > 5000 nM | > 5000 nM |
| O=S1(=O)CCc2cc(Nc3ccc4ccccc4n3)ccc2N1 [Compound 102] | > 5000 nM | > 5000 nM |
| CC1(C)Cc2cc(Nc3cnc4ccccc4n3)c(F)cc2NC1=O [Compound 109, 7-fluoro-3,3-dimethyl-6-(quinoxalin-2-ylamino)-1,4-dihydroquinolin-2-one] | < 100 nM | 100 to 250 nM |
| O=C1CCc2cc(Nc3ccc4ccccc4n3)c(F)cc2N1 [Compound 47, 7-fluoro-6-(2-quinolylamino)-3,4-dihydro-1H-quinolin-2-one] | < 100 nM | 100 to 250 nM |
| CCc1cnc(F)cc1C(=O)Nc1ccc2c(c1)CCC(=O)N2 [Compound 78, 5-ethyl-2-fluoro-N-(2-oxo-3,4-dihydro-1H-quinolin-6-yl)pyridine-4-carboxamide] | 250 to 1000 nM | < 100 nM |
| Cc1cc2ccccc2nc1Nc1ccc2c(c1)CC(C)(C)C(=O)N2 [Compound 134] | 250 to 1000 nM | 250 to 1000 nM |
| O=C1CCc2cc(NC(=O)c3ccnc4ccccc34)ccc2N1 [Compound 52, N-(2-oxo-3,4-dihydro-1H-quinolin-6-yl)quinoline-4-carboxamide] | 100 to 250 nM | 250 to 1000 nM |
| CCc1cc(C(=O)Nc2ccc3c(c2)CCC(=O)N3)ccn1 [Compound 29] | > 5000 nM | > 5000 nM |
| CCc1cnccc1C(=O)Nc1ccc2c(c1)CC(C)(CC)C(=O)N2 (stereo not drawn) [Compound 62, 3-ethyl-N-(3-ethyl-3-methyl-2-oxo-1,4-dihydroquinolin-6-yl)pyridine-4-carboxamide] | > 5000 nM | 1000 to 5000 nM |
| CC1(C)Cc2cc(Nc3ccc4ccccc4n3)ccc2NC1=O [Compound 46, 3,3-dimethyl-6-(2-quinolylamino)-1,4-dihydroquinolin-2-one] | 1000 to 5000 nM | 1000 to 5000 nM |
| CC1(C)Cc2cc(Nc3nc(=O)c4ccccc4[nH]3)ccc2NC1=O [Compound 116, 2-[(3,3-dimethyl-2-oxo-1,4-dihydroquinolin-6-yl)amino]-1H-quinazolin-4-one] | 1000 to 5000 nM | 250 to 1000 nM |
| Cc1ccc2nc(Nc3ccc4c(c3)CCC(=O)N4)ccc2c1 [Compound 89, 6-[(6-methyl-2-quinolyl)amino]-3,4-dihydro-1H-quinolin-2-one] | 1000 to 5000 nM | > 5000 nM |
| Cc1nc(Nc2ccc3c(c2)CC(C)(C)C(=O)N3)nc2ccccc12 [Compound 132, 3,3-dimethyl-6-[(4-methylquinazolin-2-yl)amino]-1,4-dihydroquinolin-2-one] | 250 to 1000 nM | 250 to 1000 nM |
| Cc1cccc2nc(Nc3ccc4c(c3)CCC(=O)N4)ccc12 [Compound 87, 6-[(5-methyl-2-quinolyl)amino]-3,4-dihydro-1H-quinolin-2-one] | < 100 nM | 250 to 1000 nM |
| CCc1cnccc1C(=O)Nc1ccc2c(c1)C(C)(C)CC(=O)N2 [Compound 19, N-(4,4-dimethyl-2-oxo-1,3-dihydroquinolin-6-yl)-3-ethyl-pyridine-4-carboxamide] | 1000 to 5000 nM | 250 to 1000 nM |
| CCc1cnccc1/C=C/c1ccc2c(c1)CCC(=O)N2 [Compound 33, 6-[(E)-2-(3-ethyl-4-pyridyl)vinyl]-3,4-dihydro-1H-quinolin-2-one] | 100 to 250 nM | 100 to 250 nM |
